Test in all cases: inhibition of tumour cell growth, NCI panel, 48 h
Assay [1] has as its system SF-295.
The test system of assay [2] is NCI-H23.
For assay [3], the system named is BT-549.
In assay [4] the test system is OVCAR-4.
The subject of assay [5] is EKVX.
The test system of assay [6] is 786-0.
Assay [7] deals with SK-OV-3.
Assay [8] concerns UACC-62.
The subject of assay [9] is SK-MEL-28.
Assay [10] deals with TK-10.
Assay [11] deals with HOP-62.
For assay [12], the system named is SK-MEL-2.
Assay [13] concerns SNB-75.
The test system of assay [14] is M14.
Assay [15] relates to HCT-15.
Assay [16] has as its system MOLT-4.
For assay [17], the system named is ACHN.
Assay [18] deals with RXF 393.
For assay [19], the system named is HOP-92.

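96-well plates; 48 h exposure; 5 concentrations. Endpoints by linear interpolation between flanking doses. Not reached: highest tested concentration assigned. Abbreviation: GI50, concentration required for 50% inhibition of growth.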 Calls of active or inactive are those of the source. Cut-off read from the data, not from the text of the source: active = GI50 up to about 1.1 µM and inactive = higher. Where only a bound is given, the exact number is not on record here.

Turning to `COC(=O)c1cc(/C=C2\Cc3cc4c(cc3C2=O)CCC4)cc2c1CCC2`, the GI50 in [1] is > 100 µM (inactive); in assay [2], > 100 µM (inactive); in assay [3], > 100 µM (inactive); in assay [4], 41.3 µM (inactive); in assay [5], > 100 µM (inactive); in [6], > 100 µM (inactive). The GI50 in assay [7], in assay [8], in assay [9], in assay [10], in [11] and in assay [12] was > 100 µM (inactive) in each case. The GI50 in assay [13] was > 100 µM (inactive); in assay [14], > 100 µM (inactive); in assay [15], more than 100 µM; in assay [16], > 100 µM (inactive); in [17], > 100 µM (inactive).
`O=C(C=P(c1ccccc1)(c1ccccc1)c1ccccc1)c1ccc(-c2cccc([N+](=O)[O-])c2)cc1`: the GI50 was 3.6 µM (inactive) in assay [1]; 4.36 µM (inactive) in [2]; 3.06 µM (inactive) in assay [18]; 2.61 µM (inactive) in [4]; 2.69 µM (inactive) in assay [5]; 4.51 µM (inactive) in assay [6]. Further, the GI50 is 4.03 µM (inactive) in [7]; 4.2 µM (inactive) in [8]; 4.98 µM (inactive) in [9]; 3.23 µM (inactive) in assay [10]; 5.86 µM (inactive) in assay [11]; 1.63 µM (inactive) in assay [12]. Besides, the GI50 in [13] was 2.29 µM (inactive); in assay [19] it was 2.16 µM (inactive); in assay [14] it was 2.05 µM (inactive); in assay [15] it was 3.94 µM; in assay [16], 2.96 µM (inactive); in [17] it was 2.82 µM (inactive).
As for `N#CCN(Cc1ccccc1)[C@@H]1CCC[C@]1(O)C#Cc1ccc2c(c1)OCO2`, the GI50 in assay [1] is 19.8 µM (inactive); in assay [2], 16.4 µM (inactive); in [18] it was 15.2 µM (inactive); in assay [4], 15 µM (inactive); in assay [5] it was 27 µM (inactive); in assay [6], 15.8 µM (inactive). Moreover, the GI50 in [7] is 25.8 µM (inactive); in assay [8] it was 16.1 µM (inactive); in assay [9], 17.1 µM (inactive); in assay [10], 21.1 µM (inactive); in assay [11], 16.2 µM (inactive); in assay [12], 16.4 µM (inactive). The GI50 in [13] is 31 µM (inactive); in assay [19], 12.9 µM (inactive); in assay [14] it was 16.8 µM (inactive); in assay [15], 21.8 µM; in assay [16], 16.4 µM (inactive); in assay [17] it was 18 µM (inactive).
For `C/N=C/N(C)c1c2ccccc2nc2ccccc12`, the GI50 in [1], in assay [2], in assay [18], in assay [4], in assay [5] and in assay [6] was > 100 µM (inactive) in each case. The GI50 in [7], in [8], in [9], in assay [10], in [11] and in assay [12] was > 100 µM (inactive) in each case. The GI50 is 90.6 µM (inactive) in assay [13]; 64.7 µM (inactive) in assay [19]; > 100 µM (inactive) in assay [14]; more than 100 µM in [15]; > 100 µM (inactive) in assay [16]; > 100 µM (inactive) in assay [17].

For the origin of these results see ChEMBL document CHEMBL1201862, “PubChem BioAssay data set” (2004).
